Measurements as given in the supplement of paper PMC11208160.

Test: recombinant barcode read abundance after kanamycin selection (control-corrected) (log10(CPM+1)); higher = more efficient recombination; sequences stand for … in AGTGCAGAGAAAATCGGCCAGTTTTCTCTGCCTGCAGTCCGCATGCCGT…AGATTTATGCAGCGGACTGCCTTTCTCCCAAAGTGATAAACCGGACAGTATCATGGACCGGTTTTCCCGGTAATCCGTATTTGCAAGGTTGGTTTCACT; site = the 11-nt target
Summary of the method: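 Duplicate cultures were plated either on chloramphenicol/ampicillin LB agar, serving as control, or on chloramphenicol/ampicillin/kanamycin with 0.1 mM IPTG. These came from a pooled E. coli library co-electroporated with a donor plasmid, each member pairing a target with an IS621 bridge RNA target-binding loop. Recombination efficiency equals averaged, control-corrected counts per million of recombinant-junction barcodes. It is listed as log10(CPM+1).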
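Also: IS621 recombinase and bridge RNA in Escherichia coli cells.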

| Sequence | recombinant barcode read abundance (log10) |
| --- | --- |
| CTAAGGACTTGGGTTCTAACCTGTTGCTA (site CGAAGGACTTA) | 0.0114 |
| CTAAGGACTTGGGTTCTAACCTGTTGCTA (site CTAAGGACTTA) | 1.11 |
| CTAAGGCCTTGGGTTCTAACCTGTTGCAT (site AAGTCCTCTCA) | 0.428 |
| CTAAGGCCTTGGGTTCTAACCTGTTGCAT (site CTAAGGCCTAT) | 1.85 |
| CTAAGGGCTTGGGTTCTAACCTGTTGCTG (site CTAAGGACTAA) | 0.314 |
| CTAAGGGCTTGGGTTCTAACCTGTTGCTG (site CTAAGGGCTCA) | 0.772 |
| CTAAGGTCTTGGGTTCTAACCTGTTGCGT (site CTAAGGTCTAA) | 0.31 |
| CTAAGGTCTTGGGTTCTAACCTGTTGCGT (site CTAAGGTCTAC) | 2.69 |
| CTAAGGTCTTGGGTTCTAACCTGTTGCGT (site CTAAGGTCTAG) | 0.209 |
| CTAAGGTCTTGGGTTCTAACCTGTTGCGT (site CTAAGGTCTAT) | 1.9 |
| CTAAGGTCTTGGGTTCTAACCTGTTGCTT (site CTAAGGTCTAA) | 0.462 |
| CTAAGGTCTTGGGTTCTAACCTGTTGCTT (site CTAAGGTCTAC) | 0.132 |
| CTAAGGTCTTGGGTTCTAACCTGTTGCTT (site CTAAGGTCTAG) | 0.186 |
| CTAAGGTCTTGGGTTCTAACCTGTTGCTT (site CTAAGGTCTAT) | 0.886 |
| CTAAGTACTTGGGTTCTAACCTGTTGCAG (site CTAAGTACTCT) | 1.56 |
| CTAAGTACTTGGGTTCTAACCTGTTGCAG (site CTAATTACTTT) | 0.56 |
| CTAATATCTTGGGTTCTAACCTGTTGCAT (site AATGGTCCTTG) | 0.105 |
| CTAATATCTTGGGTTCTAACCTGTTGCAT (site CTAATATCTAT) | 1.26 |
| CTAATCCCTTGGGTTCTAACCTGTTGCAT (site CATATCCCTAT) | 0.0276 |
| CTAATCCCTTGGGTTCTAACCTGTTGCAT (site CTAATCCCTAT) | 1.59 |
| CTAATGGCTTGGGTTCTAACCTGTTGCCT (site CTAATAGCTAG) | 0.176 |
| CTAATGGCTTGGGTTCTAACCTGTTGCCT (site CTAATGGCTAG) | 0.178 |

| Sequence | recombinant barcode read abundance (log10) |
| --- | --- |
| CTACAACCTTGGGTTCTAACCTGTTGCAG (site CTACAACCTCT) | 2.02 |
| CTACAACCTTGGGTTCTAACCTGTTGCAG (site TGGACTACTGA) | 0.25 |
| CTACACACTTGGGTTCTAACCTGTTGCTA (site CTACACACTGA) | 0.00924 |
| CTACACACTTGGGTTCTAACCTGTTGCTA (site CTACACACTTA) | 1.91 |
| CTACACCCTTGGGTTCTAACCTGTTGCGA (site CTAAACCCTAC) | 0.0483 |
| CTACACCCTTGGGTTCTAACCTGTTGCGA (site CTACACCCTTC) | 2.39 |
| CTACATCCTTGGGTTCTAACCTGTTGCTT (site CTACAACCTAA) | 0.00817 |
| CTACATCCTTGGGTTCTAACCTGTTGCTT (site CTACACCCTAA) | 0.157 |
| CTACATCCTTGGGTTCTAACCTGTTGCTT (site CTACAGCCTAA) | 0.0896 |
| CTACATCCTTGGGTTCTAACCTGTTGCTT (site CTACATCCTAA) | 1.49 |
| CTACCTACTTGGGTTCTAACCTGTTGCGG (site AATATCTCTTG) | 0.224 |
| CTACCTACTTGGGTTCTAACCTGTTGCGG (site CTACCTACTCC) | 2.72 |
| CTACGAACTTGGGTTCTAACCTGTTGCGG (site CTACGAACTCC) | 2.17 |
| CTACGAACTTGGGTTCTAACCTGTTGCGG (site TGGACCTCTTG) | 0.181 |
| CTACGACCTTGGGTTCTAACCTGTTGCAG (site CTACGACCTCT) | 2.56 |
| CTACGACCTTGGGTTCTAACCTGTTGCAG (site TACGATACTAC) | 0.186 |
| CTACGACCTTGGGTTCTAACCTGTTGCGG (site CTACGACCTCC) | 2.9 |
| CTACGACCTTGGGTTCTAACCTGTTGCGG (site TACAAGTCTAG) | 0.164 |
| CTACGCGCTTGGGTTCTAACCTGTTGCTT (site CTACGCGCTAA) | 0.921 |
| CTACGCGCTTGGGTTCTAACCTGTTGCTT (site GTACGCGCTAC) | 0.309 |
| CTACGGCCTTGGGTTCTAACCTGTTGCGT (site CTACGGCCTAC) | 1.05 |
| CTACGGCCTTGGGTTCTAACCTGTTGCGT (site GGACGGCCTAC) | 0.281 |

| Sequence | recombinant barcode read abundance (log10) |
| --- | --- |
| CTAGACTCTTGGGTTCTAACCTGTTGCAC (site CTAGACTCTAT) | 0.626 |
| CTAGACTCTTGGGTTCTAACCTGTTGCAC (site CTAGACTCTCT) | 0.0956 |
| CTAGACTCTTGGGTTCTAACCTGTTGCAC (site CTAGACTCTGT) | 2.77 |
| CTAGACTCTTGGGTTCTAACCTGTTGCAC (site CTAGACTCTTT) | 0.11 |
| CTAGACTCTTGGGTTCTAACCTGTTGCAG (site CTAGACTCTAT) | 0.88 |
| CTAGACTCTTGGGTTCTAACCTGTTGCAG (site CTAGACTCTCT) | 2.42 |
| CTAGACTCTTGGGTTCTAACCTGTTGCAG (site CTAGACTCTGT) | 1.16 |
| CTAGACTCTTGGGTTCTAACCTGTTGCAG (site CTAGACTCTTT) | 0.376 |
| CTAGCGACTTGGGTTCTAACCTGTTGCAC (site AGGAGAGCTAA) | 0.409 |
| CTAGCGACTTGGGTTCTAACCTGTTGCAC (site CTAGCGACTGT) | 1.15 |
| CTAGCGACTTGGGTTCTAACCTGTTGCCG (site ACGCTATCTAA) | 0.102 |
| CTAGCGACTTGGGTTCTAACCTGTTGCCG (site CTAGCGACTCG) | 0.834 |
| CTAGCTCCTTGGGTTCTAACCTGTTGCTT (site CTAGCTCCTAA) | 0.0882 |
| CTAGCTCCTTGGGTTCTAACCTGTTGCTT (site GCTTGGTCTTC) | 0.0776 |
| CTAGGAGCTTGGGTTCTAACCTGTTGCCT (site CTAGGACCTTG) | 0.0183 |
| CTAGGAGCTTGGGTTCTAACCTGTTGCCT (site CTAGGAGCTAG) | 0.148 |
| CTAGGAGCTTGGGTTCTAACCTGTTGCTA (site CTAGGAGCTAA) | 0.137 |
| CTAGGAGCTTGGGTTCTAACCTGTTGCTA (site CTAGGAGCTCA) | 0.231 |
| CTAGGAGCTTGGGTTCTAACCTGTTGCTA (site CTAGGAGCTGA) | 0.0444 |
| CTAGGAGCTTGGGTTCTAACCTGTTGCTA (site CTAGGAGCTTA) | 1.23 |
| CTAGGAGCTTGGGTTCTAACCTGTTGCTG (site CTAGGAGCTAA) | 0.19 |
| CTAGGAGCTTGGGTTCTAACCTGTTGCTG (site CTAGGAGCTCA) | 1.75 |
